Source: patent publication US20240002391A1, “4-ALKOXYPYRROLO[2,1-F][1,2,4]TRIAZINES AND PREPARATION AND USES THEREOF” (BioSplice Therapeutics, Inc., priority 2022, published 2024)
pIC50: −log10 of the molar value.

target: recombinant DYRK1A kinase (Homo sapiens (Human), UniProt Q13627); assay: DYRK1A kinase assay (Ser/Thr 18 peptide Z-lyte FRET); type: biochemical; conditions: DYRK1A kinase activity, Z-lyte Ser/Thr 18 peptide, 15 μM ATP; method text calls the value IC50; read-out: EC50 (the source's name)
In short: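 Recombinant enzyme (0.25 μg/mL final) was incubated with 15 μM ATP, 4 μM Ser/Thr 18 peptide and compound (11-point 1:3 series from 10 μM) for 1 h at room temperature, in duplicate. Development reagent was added for 1 h, and coumarin/fluorescein emission ratio gave % phosphorylation; IC50 by non-linear regression.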

pIC50	SMILES
8.89	CCC(=O)N[C@]1(C)C[C@@H](Nc2nc(OC)c3c(-c4ccc5nnn(C)c5c4)ccn3n2)C1 [Compound 207, N-(trans-3-((4-Methoxy-5-(1-methyl-1H-benzo[d][1,2,3]triazol-6-yl)pyrrolo[2,1-f][1,2,4]triazin-2-yl)amino)-1-methylcyclobutyl)propionamide]
9.30	COCC(=O)N[C@]1(C)C[C@@H](Nc2nc(OC)c3c(-c4ccc5nnn(C)c5c4)ccn3n2)C1 [Compound 208, 2-Methoxy-N-(trans-3-((4-methoxy-5-(1-methyl-1H-benzo[d][1,2,3]triazol-6-yl)pyrrolo[2,1-f][1,2,4]triazin-2-yl)amino)-1-methylcyclobutyl)acetamide]
8.06	CNC(=O)[C@]1(C)C[C@H](Nc2nc(OC)c3c(-c4ccc5nnn(C)c5c4)ccn3n2)C1 [Compound 209, cis-3-((4-Methoxy-5-(1-methyl-1H-benzo[d][1,2,3]triazol-6-yl)pyrrolo[2,1-f][1,2,4]triazin-2-yl)amino)-N,1-dimethylcyclobutane-1-carboxamide]
8.18	COc1nc(N[C@H]2C[C@@](C)(C(=O)N(C)C)C2)nn2ccc(-c3ccc4nnn(C)c4c3)c12 [Compound 211, cis-3-((4-Methoxy-5-(1-methyl-1H-benzo[d][1,2,3]triazol-6-yl)pyrrolo[2,1-f][1,2,4]triazin-2-yl)amino)-N,N,1-trimethylcyclobutane-1-carboxamide]
8.85	COc1nc(N[C@H]2C[C@](C)(C(=O)N(C)C)C2)nn2ccc(-c3ccc4nnn(C)c4c3)c12 [Compound 212, trans-3-((4-Methoxy-5-(1-methyl-1H-benzo[d][1,2,3]triazol-6-yl)pyrrolo[2,1-f][1,2,4]triazin-2-yl)amino)-N,N,1-trimethylcyclobutane-1-carboxamide]
8.66	COCCNC(=O)[C@]1(C)C[C@@H](Nc2nc(OC)c3c(-c4ccc5nnn(C)c5c4)ccn3n2)C1 [Compound 214, trans-3-((4-Methoxy-5-(1-methyl-1H-benzo[d][1,2,3]triazol-6-yl)pyrrolo[2,1-f][1,2,4]triazin-2-yl)amino)-N-(2-methoxyethyl)-1-methylcyclobutane-1-carboxamide]
8.03	COc1nc(N[C@H]2C[C@@](C)(C(=O)NC3CC3)C2)nn2ccc(-c3ccc4nnn(C)c4c3)c12 [Compound 217, cis-N-Cyclopropyl-3-((4-methoxy-5-(1-methyl-1H-benzo[d][1,2,3]triazol-6-yl)pyrrolo[2,1-f][1,2,4]triazin-2-yl)amino)-1-methylcyclobutane-1-carboxamide]
8.54	COc1nc(N[C@H]2C[C@](C)(C(=O)NC3CC3)C2)nn2ccc(-c3ccc4nnn(C)c4c3)c12 [Compound 218, trans-N-Cyclopropyl-3-((4-methoxy-5-(1-methyl-1H-benzo[d][1,2,3]triazol-6-yl)pyrrolo[2,1-f][1,2,4]triazin-2-yl)amino)-1-methylcyclobutane-1-carboxamide]
8.46	COc1nc(N[C@H]2C[C@](C)(C(=O)N3CCCC3)C2)nn2ccc(-c3ccc4nnn(C)c4c3)c12 [Compound 222, (trans-3-((4-methoxy-5-(1-methyl-1H-benzo[d][1,2,3]triazol-6-yl)pyrrolo[2,1-f][1,2,4]triazin-2-yl)amino)-1-methylcyclobutyl)(pyrrolidin-1-yl)methanone]
8.80	COc1nc(N[C@H]2C[C@](C)(N3CCCC3=O)C2)nn2ccc(-c3ccc4nnn(C)c4c3)c12 [Compound 223, 1-(trans-3-((4-methoxy-5-(1-methyl-1H-benzo[d][1,2,3]triazol-6-yl)pyrrolo[2,1-f][1,2,4]triazin-2-yl)amino)-1-methylcyclobutyl)pyrrolidin-2-one]
7.95	COc1nc(N[C@H]2CC[C@@](C)(O)CC2)nn2ccc(-c3ccc4nnn(C)c4c3)c12 [Compound 224, cis-4-((4-Methoxy-5-(1-methyl-1H-benzo[d][1,2,3]triazol-6-yl)pyrrolo[2,1-f][1,2,4]triazin-2-yl)amino)-1-methylcyclohexan-1-ol]
7.93	CNC(=O)[C@]1(C)CC[C@H](Nc2nc(OC)c3c(-c4ccc5nnn(C)c5c4)ccn3n2)CC1 [Compound 225, cis-4-((4-Methoxy-5-(1-methyl-1H-benzo[d][1,2,3]triazol-6-yl)pyrrolo[2,1-f][1,2,4]triazin-2-yl)amino)-N,1-dimethylcyclohexane-1-carboxamide]
8.49	CNC(=O)C12CC(Nc3nc(OC)c4c(-c5ccc6nnn(C)c6c5)ccn4n3)(C1)C2 [Compound 226, 3-((4-Methoxy-5-(1-methyl-1H-benzo[d][1,2,3]triazol-6-yl)pyrrolo[2,1-f][1,2,4]triazin-2-yl)amino)-N-methylbicyclo[1.1.1]pentane-1-carboxamide]
8.44	COc1nc(NC2CC3(CCN(C(C)=O)CC3)C2)nn2ccc(-c3ccc4nnn(C)c4c3)c12 [Compound 227, 1-(2-((4-Methoxy-5-(1-methyl-1H-benzo[d][1,2,3]triazol-6-yl)pyrrolo[2,1-f][1,2,4]triazin-2-yl)amino)-7-azaspiro[3.5]nonan-7-yl)ethan-1-one]
8.47	COc1nc(N[C@@H]2C[C@@H]3CN(C(C)=O)C[C@@H]3C2)nn2ccc(-c3ccc4nnn(C)c4c3)c12 [Compound 228, 1-((3aR,5r,6aS)-5-((4-Methoxy-5-(1-methyl-1H-benzo[d][1,2,3]triazol-6-yl)pyrrolo[2,1-f][1,2,4]triazin-2-yl)amino)hexahydrocyclopenta[c]pyrrol-2(1H)-yl)ethan-1-one]
8.72	COc1nc(NC2CCC3(CC2)CN(C(C)=O)C3)nn2ccc(-c3ccc4nnn(C)c4c3)c12 [Compound 229, 1-(7-((4-Methoxy-5-(1-methyl-1H-benzo[d][1,2,3]triazol-6-yl)pyrrolo[2,1-f][1,2,4]triazin-2-yl)amino)-2-azaspiro[3.5]nonan-2-yl)ethan-1-one]
8.38	COc1nc(NC2CCC3(CC2)COC3)nn2ccc(-c3ccc4nnn(C)c4c3)c12 [Compound 230, 4-Methoxy-5-(1-methyl-1H-benzo[d][1,2,3]triazol-6-yl)-N-(2-oxaspiro[3.5]nonan-7-yl)pyrrolo[2,1-f][1,2,4]triazin-2-amine]
8.14	COc1nc(N[C@H](C)C2CC2)nn2ccc(-c3cnc4nccn4c3)c12 [Compound 231, (R)—N-(1-Cyclopropylethyl)-5-(imidazo[1,2-a]pyrimidin-6-yl)-4-methoxypyrrolo[2,1-f][1,2,4]triazin-2-amine]
8.17	COc1nc(N[C@H](C)c2ccccc2)nn2ccc(-c3cnc4nccn4c3)c12 [Compound 233, (R)-5-(Imidazo[1,2-a]pyrimidin-6-yl)-4-methoxy-N-(1-phenylethyl)pyrrolo[2,1-f][1,2,4]triazin-2-amine]
9.30	COc1nc(N[C@H]2C[C@@H](OC)C2)nn2ccc(-c3cnc4nccn4c3)c12 [Compound 236, 5-(Imidazo[1,2-a]pyrimidin-6-yl)-4-methoxy-N-(cis-3-methoxycyclobutyl)pyrrolo[2,1-f][1,2,4]triazin-2-amine]
8.54	COc1nc(N[C@H]2CC[C@@H](C(F)(F)F)CC2)nn2ccc(-c3cnc4nccn4c3)c12 [Compound 239, 5-(Imidazo[1,2-a]pyrimidin-6-yl)-4-methoxy-N-(cis-4-(trifluoromethyl)cyclohexyl)pyrrolo[2,1-f][1,2,4]triazin-2-amine]
8.36	COc1nc(N[C@H]2CC[C@H](C(C)(C)O)CC2)nn2ccc(-c3cnc4nccn4c3)c12 [Compound 242, 2-(trans-4-((5-(Imidazo[1,2-a]pyrimidin-6-yl)-4-methoxypyrrolo[2,1-f][1,2,4]triazin-2-yl)amino)cyclohexyl)propan-2-ol]
8.92	COc1nc(N[C@H]2CC[C@@H](OC)CC2)nn2ccc(-c3cnc4nccn4c3)c12 [Compound 243, 5-(imidazo[1,2-a]pyrimidin-6-yl)-4-methoxy-N-(cis-4-methoxycyclohexyl)pyrrolo[2,1-f][1,2,4]triazin-2-amine]
9.15	[2H]C([2H])([2H])O[C@H]1CC[C@@H](Nc2nc(OC)c3c(-c4cnc5nccn5c4)ccn3n2)CC1 [Compound 245, 5-(Imidazo[1,2-a]pyrimidin-6-yl)-4-methoxy-N-(cis-4-(methoxy-d3)cyclohexyl)pyrrolo[2,1-f][1,2,4]triazin-2-amine]
9.22	COc1nc(N[C@H]2CC[C@@H](OC(F)F)CC2)nn2ccc(-c3cnc4nccn4c3)c12 [Compound 250, N-(cis-4-(Difluoromethoxy)cyclohexyl)-5-(imidazo[1,2-a]pyrimidin-6-yl)-4-methoxypyrrolo[2,1-f][1,2,4]triazin-2-amine]
8.60	COc1nc(N[C@H]2CC[C@@H](OC(F)(F)F)CC2)nn2ccc(-c3cnc4nccn4c3)c12 [Compound 252, 5-(Imidazo[1,2-a]pyrimidin-6-yl)-4-methoxy-N-(cis-4-(trifluoromethoxy)cyclohexyl)pyrrolo[2,1-f][1,2,4]triazin-2-amine]
8.74	COc1nc(NC2CCC(F)(F)CC2)nn2ccc(-c3cnc4nccn4c3)c12 [Compound 254, N-(4,4-Difluorocyclohexyl)-5-(imidazo[1,2-a]pyrimidin-6-yl)-4-methoxypyrrolo[2,1-f][1,2,4]triazin-2-amine]
6.81	CN1C[C@H](F)[C@H](Nc2nc(O)c3c(-c4cnc5nccn5c4)ccn3n2)C1 [Compound 261, 2-(((3R,4S)-4-Fluoro-1-methylpyrrolidin-3-yl)amino)-5-(imidazo[1,2-a]pyrimidin-6-yl)pyrrolo[2,1-f][1,2,4]triazin-4-ol]
8.49	COc1nc(N[C@@H]2CN(C)C[C@@H]2F)nn2ccc(-c3cnc4nccn4c3)c12 [Compound 262, N-((3R,4S)-4-Fluoro-1-methylpyrrolidin-3-yl)-5-(imidazo[1,2-a]pyrimidin-6-yl)-4-methoxypyrrolo[2,1-f][1,2,4]triazin-2-amine]
